Results taken from ChEMBL document CHEMBL5214948, “Boronic Acid: A Novel Pharmacophore Targeting Src Homology 2 (SH2) Domain of STAT3” (J Med Chem, 2022).
Activity calls are given as the source filed them. No cut-off for these calls is given here.

Key:
[1] = Volume of distribution at steady state in ICR mouse at 5 mg/kg, iv measured upto 24 hrs by LC-MS/MS analysis; type: ADME, organism-based; conditions: in vivo, read-out: Vdss
[2] = molecular target: T1, Signal transducer and activator of transcription 3 (Homo sapiens, UniProt P40763); test: Binding affinity to full length wild type STAT3-SH2 domain (unknown origin) in human MGC-803 cells assessed as thermal stabilization of protein at 37 to 53 degreeC at 5 uM incubated for 3 hrs by cellular thermal shift assay; type: cell-based
Target sequence in this assay (P40763 whole entry, the tested form may be a part): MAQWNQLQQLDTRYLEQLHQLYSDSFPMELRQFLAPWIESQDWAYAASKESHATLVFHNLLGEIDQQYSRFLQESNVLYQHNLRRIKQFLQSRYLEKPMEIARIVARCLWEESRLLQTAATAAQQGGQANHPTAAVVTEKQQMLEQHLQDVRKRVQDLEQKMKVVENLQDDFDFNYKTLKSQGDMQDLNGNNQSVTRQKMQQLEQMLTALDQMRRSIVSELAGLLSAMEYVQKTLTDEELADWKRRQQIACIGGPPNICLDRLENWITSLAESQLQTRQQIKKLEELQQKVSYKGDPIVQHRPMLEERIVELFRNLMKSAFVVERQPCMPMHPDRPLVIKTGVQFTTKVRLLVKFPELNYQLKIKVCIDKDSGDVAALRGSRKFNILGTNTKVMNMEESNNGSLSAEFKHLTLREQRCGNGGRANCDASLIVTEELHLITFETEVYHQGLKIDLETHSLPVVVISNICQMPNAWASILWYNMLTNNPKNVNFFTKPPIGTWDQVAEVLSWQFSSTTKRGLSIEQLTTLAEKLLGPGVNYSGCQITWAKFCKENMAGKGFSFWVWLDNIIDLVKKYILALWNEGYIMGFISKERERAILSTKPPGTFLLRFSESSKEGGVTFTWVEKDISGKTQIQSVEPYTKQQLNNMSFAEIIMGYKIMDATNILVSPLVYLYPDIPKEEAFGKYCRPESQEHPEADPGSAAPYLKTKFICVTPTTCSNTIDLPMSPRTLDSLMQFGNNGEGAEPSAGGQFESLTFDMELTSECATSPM

MGC-803 [3] = test: Induction of apoptosis in human MGC-803 cells at 5 uM incubated for 72 hrs by V-FITC/PI staining based flow cytometry assay; type: functional
MGC-803 [4] = test: Antitumor activity against human MGC-803 cells xenografted in BALB/c nude mouse assessed as reduction in tumor cells at 5 mg/kg, ip measured every day for 20 days by immunohistochemical analysis; type: functional, organism-based; conditions: time 20.0 day
MGC-803 [5] = test: Antitumor activity against human MGC-803 cells xenografted in BALB/c nude mouse assessed as reduction in tumor progression at 15 mg/kg, ip measured every day for 20 days by immunohistochemical analysis; type: functional, organism-based; conditions: time 20.0 day
[6] = Toxicity in BALB/c nude mouse xenografted with MGC-803 cells assessed as effect on body weight at 15 mg/kg, ip measured every day for 20 days; type: organism-based; conditions: in vivo, 480 h, time 20 day
[7] = Toxicity in nude BALB/c nude mouse xenografted with human MGC-803 cells assessed as morphological changes in spleen at 5 to 15 mg/kg, ip measured every day for 20 days by H and E staining based assay; type: organism-based; conditions: in vivo, 480 h, time 20 day
AGS [8] = test: Inhibition of cell migration in human AGS cells assessed as cell migration incubated for 24 hrs by microscopy based by scratch wound healing assay; type: functional; conditions: dose 1-3 µM, DDE = dose-dependent effect
MGC-803 [9] = test: Antitumor activity against human MGC-803 cells xenografted in ip dosed BALB/c nude mouse assessed as supression of tumor growth measured every day for 20 days; type: functional, organism-based; conditions: dose 5-15 mg/kg, time 20.0 day, DDE = dose-dependent effect
[10] = molecular target: T1, Signal transducer and activator of transcription 3; test: Binding affinity to full length wild type STAT3-SH2 domain (unknown origin) assessed as association constant by SPR analysis
Target sequence in this assay (P40763 whole entry, the tested form may be a part): as above

[11] = molecular target: T1, Signal transducer and activator of transcription 3; test: Inhibition of STAT3 transcriptional activity in human AGS cells assessed as downregulation of Bcl-xL protein expression at 1 to 3 uM incubated for 24 hrs by Western blot analysis; type: cell-based; conditions: dose 1-3 µM
Target sequence in this assay (P40763 whole entry, the tested form may be a part): as above

MGC-803 [12] = test: Antitumor activity against human MGC-803 cells xenografted in BALB/c nude mouse assessed as reduction in phosphorylated STAT3 at Y705 residue at 15 mg/kg, ip measured every day for 20 days by immunohistochemical analysis; type: functional, organism-based; conditions: time 20.0 day
[13] = molecular target: T1, Signal transducer and activator of transcription 3; test: Inhibition of STAT3 transcriptional activity in human MGC-803 cells assessed as downregulation of C-myc protein expression at 3 to 5 uM incubated for 24 hrs by Western blot analysis; type: cell-based; conditions: dose 3-5 µM
Target sequence in this assay (P40763 whole entry, the tested form may be a part): as above

MGC-803 [14] = test: Inhibition of cell invasion in human MGC-803 cells measured after 24 hrs by crystal violet staining based imaging transwell assay; type: functional; conditions: DDE = dose-dependent effect
MGC-803 [15] = test: Antitumor activity against human MGC-803 cells xenografted in BALB/c nude mouse assessed as reduction in Ki67 expression at 5 mg/kg, ip measured every day for 20 days by immunohistochemical analysis; type: functional, organism-based; conditions: time 20.0 day
[16] = molecular target: T1, Signal transducer and activator of transcription 3; test: Binding affinity to full length wild type STAT3-SH2 domain (unknown origin) assessed as equilibrium dissociation constant by SPR analysis
Target sequence in this assay (P40763 whole entry, the tested form may be a part): as above

[17] = molecular target: T1, Signal transducer and activator of transcription 3; test: Inhibition of STAT3 at Y705 residue phosphorylation at in human MGC-803 cells at 5 uM pretreated for 48 hrs followed by compound washout and measured after 72 hrs by immunoblotting analysis
Target sequence in this assay (P40763 whole entry, looked up, the tested form may be a part): as the sequence (P40763 whole entry, the tested form may be a part) above

[18] = molecular target: T1, Signal transducer and activator of transcription 3; test: Inhibition of STAT3 transcriptional activity in human MGC-803 cells assessed as downregulation of Bcl-xL protein expression at 3 to 5 uM incubated for 24 hrs by Western blot analysis; type: cell-based; conditions: dose 3-5 µM
Target sequence in this assay (P40763 whole entry, the tested form may be a part): as above

in vivo [19] = type: ADME, organism-based; conditions: ICR, mouse, iv, 5 mg/kg
[20] = Toxicity in nude BALB/c nude mouse xenografted with human MGC-803 cells assessed as morphological changes in heart at 5 to 15 mg/kg, ip measured every day for 20 days by H and E staining based assay; type: organism-based; conditions: in vivo, 480 h, time 20 day
MGC-803 [21] = test: Antitumor activity against human MGC-803 cells xenografted in BALB/c nude mouse assessed as reduction in c-myc expression at 15 mg/kg, ip measured every day for 20 days by immunohistochemical analysis; type: functional, organism-based; conditions: time 20.0 day
AGS [22] = test: Antiproliferative activity against human AGS cells assessed as reduction in cell viability at 1 to 3 uM incubated for 72 hrs by Edu incorporation assay; type: functional, cell-based; conditions: dose 1-3 µM
[23] = Toxicity in BALB/c nude mouse xenografted with MGC-803 cells assessed as effect on body weight at 5 mg/kg, ip measured every day for 20 days; type: organism-based; conditions: in vivo, 480 h, time 20 day
MGC-803 [24] = test: Antitumor activity against human MGC-803 cells xenografted in BALB/c nude mouse assessed as reduction in Bcl-xL expression at 5 mg/kg, ip measured every day for 20 days by immunohistochemical analysis; type: functional, organism-based; conditions: time 20.0 day
in vivo [25] = type: ADME, organism-based; conditions: ICR, mouse, iv, 5 mg/kg; remark: listed apart in the source
MGC-803 [26] = test: Antitumor activity against human MGC-803 cells xenografted in BALB/c nude mouse assessed as reduction in c-myc expression at 5 mg/kg, ip measured every day for 20 days by immunohistochemical analysis; type: functional, organism-based; conditions: time 20.0 day
MGC-803 [27] = test: Antitumor activity against human MGC-803 cells xenografted in BALB/c nude mouse assessed as tumor growth inhibition at 5 mg/kg, ip measured every day for 20 days; type: functional; set-up: scale not given: the % may be the effect or the level left; conditions: time 20 day

With CN(CC(=O)N(Cc1ccc(C2CCCCC2)cc1)c1ccc(B(O)O)cc1)S(=O)(=O)c1c(F)c(F)c(F)c(F)c1F the Vd [1] was 18.7 L/kg, the Activity [2] was “Active” and the Activity (MGC-803 [3]) was 11.2%. The Activity (MGC-803 [4]) was “Active”, the Activity (MGC-803 [5]) was “Active” and the Activity [6] was “Non-Toxic”. The Activity [7] was “Non-Toxic”, the inhibition (AGS [8]) was “Dde” and the Activity (MGC-803 [9]) was “Dde”. The Ka [10] was 1.25 10^3/M/s, the inhibition [11] was “Active” and the Activity (MGC-803 [12]) was “Active”. The inhibition [13] was “Active”, the inhibition (MGC-803 [14]) was “Dde” and the Activity (MGC-803 [15]) was “Active”. The Kd [16] was 5.02 µM, the inhibition [17] was “Active” and the inhibition [18] was “Active”. For the same molecule, the AUC(0-t) at 24 h (in vivo [19]) was 485 ng·h/mL, the Activity [20] was “Non-Toxic” and the Activity (MGC-803 [21]) was “Active”. The Activity (AGS [22]) was “Active”, the Activity [23] was “Non-Toxic” and the Activity (MGC-803 [24]) was “Active”. For the same molecule, the AUC(0-inf) at 24 h (in vivo [25]) was 490 ng·h/mL, the Activity (MGC-803 [26]) was “Active” and the Activity (MGC-803 [27]) was 65.14%.
